What follows are molecules tested against T1, catalytic domain of the recombinant TACE protein (Homo sapiens, UniProt P78536) (assay: TACE FRET assay using TACE cat). Settings: not given.
T1 construct: The catalytic domain of the recombinant TACE protein was expressed and purified; made in house
T1 sequence (P78536 223-474 limits assumed): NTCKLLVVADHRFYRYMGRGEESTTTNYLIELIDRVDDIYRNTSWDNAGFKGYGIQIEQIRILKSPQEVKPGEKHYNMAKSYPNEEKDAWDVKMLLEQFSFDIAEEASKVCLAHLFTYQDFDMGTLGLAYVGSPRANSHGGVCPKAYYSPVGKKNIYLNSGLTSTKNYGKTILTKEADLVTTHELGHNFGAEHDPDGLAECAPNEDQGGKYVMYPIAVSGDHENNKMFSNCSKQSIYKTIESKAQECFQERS
Assay type: biochemical
Procedure: TACE FRET Assay Using TACE Cat
“K” is the IC50. Generally, “n” and “B” are floated, noting that n (Hill slope) should be close to 1 and B (background offset) to 0.
Pro-TNF-α substrate peptide Abz-[…]-Dpa (AnaSpec, San Jose, Calif., WARC-1) was prepared as a 2 mM stock solution in the TACE assay buffer (50 mM Tris-HCl, pH 7.4, 25 mM NaCl, 4% Glycerol, 0.005% Brij 35). The catalytic domain of the recombinant TACE protein was expressed and purified. The TACE protein (1 ug/ml) was pretreated with the inhibitors at various concentrations for 10 min. at room temperature. The reaction was initiated by the addition of the substrate peptide. […] The initial rate (slope) of the reaction was determined using a fluorescence plate reader (Molecular Devices, Spectra Max Gemini XS).
For `CC#CCOc1ccc(S(=O)(=O)N[C@@H](Cc2cn(CCCCC)c3ccc(OC)cc23)C(=O)O)cc1` [Example 68, N-{[4-(but-2-ynyloxy)phenyl]sulfonyl}-5-methoxy-1-pentyltryptophan], the IC50 was 1320 nM.
`CC#CCOc1ccc(S(=O)(=O)N[C@@H](Cc2cn(CC3CCC3)c3ccc(OC)cc23)C(=O)O)cc1` [Example 69, N-{[4-(but-2-ynyloxy)phenyl]sulfonyl}-1-(cyclobutylmethyl)-5-methoxytryptophan] showed an IC50 of 1190 nM.
`CC#CCOc1ccc(S(=O)(=O)N[C@@H](Cc2cn(CC3CCCCC3)c3ccc(OC)cc23)C(=O)O)cc1` [Example 70, N-{[4-(but-2-ynyloxy)phenyl]sulfonyl}-1-(cyclohexylmethyl)-5-methoxytryptophan] gave an IC50 of 1870 nM.
For `CC#CCOc1ccc(S(=O)(=O)N[C@@H](Cc2c(C)n(Cc3ccc(OC)cc3)c3ccc(Cl)cc23)C(=O)O)cc1` [Example 91, N-{[4-(but-2-ynyloxy)phenyl]sulfonyl}-5-chloro-1-(4-methoxybenzyl)-2-methyltryptophan], the IC50 was 190 nM.

Same assay, conditions: read-out: TACE Inhibition (%)
`CC#CCOc1ccc(S(=O)(=O)N[C@@H](Cc2cn(Cc3ccccc3)c3ccc(Cl)cc23)C(=O)O)cc1` [Example 71, 1-benzyl-N-{[4-(but-2-ynyloxy)phenyl]sulfonyl}-5-chlorotryptophan] was tested, and the inhibition at 1 µM was -1.19%.
With `CC#CCOc1ccc(S(=O)(=O)N[C@@H](Cc2cn(Cc3ccccc3C)c3ccc(Cl)cc23)C(=O)O)cc1` [Example 72, N-{[4-(but-2-ynyloxy)phenyl]sulfonyl}-5-chloro-1-(2-methylbenzyl)tryptophan] the inhibition at 1 µM was 27.5%.
For `CC#CCOc1ccc(S(=O)(=O)N[C@@H](Cc2cn(Cc3cccc(C)c3)c3ccc(Cl)cc23)C(=O)O)cc1` [Example 73, N-{[4-(but-2-ynyloxy)phenyl]sulfonyl}-5-chloro-1-(3-methylbenzyl)tryptophan], the inhibition at 1 µM was 28%.
For `CC#CCOc1ccc(S(=O)(=O)N[C@@H](Cc2cn(Cc3ccccc3OC)c3ccc(Cl)cc23)C(=O)O)cc1` [Example 74, N-{[4-(but-2-ynyloxy)phenyl]sulfonyl}-5-chloro-1-(2-methoxybenzyl)tryptophan], the inhibition at 1 µM was 15%.
With `CC#CCOc1ccc(S(=O)(=O)N[C@@H](Cc2cn(Cc3cccc(OC)c3)c3ccc(Cl)cc23)C(=O)O)cc1` [Example 75, N-{[4-(but-2-ynyloxy)phenyl]sulfonyl}-5-chloro-1-(3-methoxybenzyl)tryptophan] the inhibition at 1 µM was 25%.
`CC#CCOc1ccc(S(=O)(=O)N[C@@H](Cc2cn(Cc3ccc(OC)cc3)c3ccc(Cl)cc23)C(=O)O)cc1` [Example 76, N-{[4-(but-2-ynyloxy)phenyl]sulfonyl}-5-chloro-1-(4-methoxybenzyl)tryptophan] showed an inhibition at 1 µM of 18.3%.
For `CC#CCOc1ccc(S(=O)(=O)N[C@@H](Cc2cn(Cc3ccc(C(F)(F)F)cc3)c3ccc(Cl)cc23)C(=O)O)cc1` [Example 77, N-{[4-(but-2-ynyloxy)phenyl]sulfonyl}-5-chloro-1-[4-(trifluoromethyl)benzyl]tryptophan], the inhibition at 1 µM was 29.8%.
In the case of `CC#CCOc1ccc(S(=O)(=O)N[C@@H](Cc2cn(Cc3ccc(OC(F)(F)F)cc3)c3ccc(Cl)cc23)C(=O)O)cc1` [Example 78, N-{[4-(but-2-ynyloxy)phenyl]sulfonyl}-5-chloro-1-[4-(trifluoromethoxy)benzyl]tryptophan], the inhibition at 1 µM is reported as 7.39%.
With `CC#CCOc1ccc(S(=O)(=O)N[C@@H](Cc2cn(Cc3ccccc3F)c3ccc(Cl)cc23)C(=O)O)cc1` [Example 79, N-{[4-(but-2-ynyloxy)phenyl]sulfonyl}-5-chloro-1-(2-fluorobenzyl)tryptophan] the inhibition at 1 µM was 8.27%.
Molecule `CC#CCOc1ccc(S(=O)(=O)N[C@@H](Cc2cn(Cc3cccc(F)c3)c3ccc(Cl)cc23)C(=O)O)cc1` [Example 80, N-{[4-(but-2-ynyloxy)phenyl]sulfonyl}-5-chloro-1-(3-fluorobenzyl)tryptophan] has an inhibition at 1 µM of 27.1%.
Work on `CC#CCOc1ccc(S(=O)(=O)N[C@@H](Cc2cn(Cc3ccc(Cl)cc3)c3ccc(Cl)cc23)C(=O)O)cc1` [Example 81, N-{[4-(but-2-ynyloxy)phenyl]sulfonyl}-5-chloro-1-(4-chlorobenzyl)tryptophan] yielded an inhibition at 1 µM of 13.9%.
In the case of `CC#CCOc1ccc(S(=O)(=O)N[C@@H](Cc2cn(Cc3ccc(C(C)C)cc3)c3ccc(Cl)cc23)C(=O)O)cc1` [Example 82, N-{[4-(but-2-ynyloxy)phenyl]sulfonyl}-5-chloro-1-(4-isopropylbenzyl)tryptophan], the inhibition at 1 µM is reported as 5.26%.
`CC#CCOc1ccc(S(=O)(=O)N[C@@H](Cc2cn(Cc3ccc4c(c3)OCO4)c3ccc(Cl)cc23)C(=O)O)cc1` [Example 83, 1-(1,3-benzodioxol-5-ylmethyl)-N-{[4-(but-2-ynyloxy)phenyl]sulfonyl}-5-chlorotryptophan] was tested, and the inhibition at 1 µM was 31.1%.
With `CC#CCOc1ccc(S(=O)(=O)N[C@@H](Cc2cn(CC(C)C)c3ccc(Cl)cc23)C(=O)O)cc1` [Example 85, N-{[4-(but-2-ynyloxy)phenyl]sulfonyl}-5-chloro-1-isobutyltryptophan] the inhibition at 1 µM was 32.9%.
`CC#CCOc1ccc(S(=O)(=O)N[C@@H](Cc2cn(CC3CCC3)c3ccc(Cl)cc23)C(=O)O)cc1` [Example 86, N-{[4-(but-2-ynyloxy)phenyl]sulfonyl}-5-chloro-1-(cyclobutylmethyl)tryptophan] gave an inhibition at 1 µM of 15.7%.
`CC#CCOc1ccc(S(=O)(=O)N[C@@H](Cc2cn(CC3CCCCC3)c3ccc(Cl)cc23)C(=O)O)cc1` [Example 87, N-{[4-(but-2-ynyloxy)phenyl]sulfonyl}-5-chloro-1-(cyclohexylmethyl)tryptophan] gave an inhibition at 1 µM of 37.4%.
`CC#CCOc1ccc(S(=O)(=O)N[C@@H](Cc2c(C)n(Cc3ccccc3)c3ccc(Cl)cc23)C(=O)O)cc1` [Example 88, 1-benzyl-N-{[4-(but-2-ynyloxy)phenyl]sulfonyl}-5-chloro-2-methyltryptophan] was tested, and the inhibition at 1 µM was 62.8%.
In the case of `CC#CCOc1ccc(S(=O)(=O)N[C@@H](Cc2c(C)n(Cc3ccccc3OC)c3ccc(Cl)cc23)C(=O)O)cc1` [Example 89, N-{[4-(but-2-ynyloxy)phenyl]sulfonyl}-5-chloro-1-(2-methoxybenzyl)-2-methyltryptophan], the inhibition at 1 µM is reported as 53.6%.
With `CC#CCOc1ccc(S(=O)(=O)N[C@@H](Cc2c(C)n(Cc3cccc(OC)c3)c3ccc(Cl)cc23)C(=O)O)cc1` [Example 90, N-{[4-(but-2-ynyloxy)phenyl]sulfonyl}-5-chloro-1-(3-methoxybenzyl)-2-methyltryptophan] the inhibition at 1 µM was 65.2%.
`CC#CCOc1ccc(S(=O)(=O)N[C@@H](Cc2c(C)n(Cc3ccc(C)cc3)c3ccc(Cl)cc23)C(=O)O)cc1` [Example 92, N-{[4-(but-2-ynyloxy)phenyl]sulfonyl}-5-chloro-2-methyl-1-(4-methylbenzyl)tryptophan] gave an inhibition at 1 µM of 64%.
`CC#CCOc1ccc(S(=O)(=O)N[C@@H](Cc2c(C)n(Cc3ccc(C(F)(F)F)cc3)c3ccc(Cl)cc23)C(=O)O)cc1` [Example 93, N-{[4-(but-2-ynyloxy)phenyl]sulfonyl}-5-chloro-2-methyl-1-[4-(trifluoromethyl)benzyl]tryptophan] gave an inhibition at 1 µM of 53.8%.
`CC#CCOc1ccc(S(=O)(=O)N[C@@H](Cc2c(C)n(Cc3ccc(OC(F)(F)F)cc3)c3ccc(Cl)cc23)C(=O)O)cc1` [Example 94, N-{[4-(but-2-ynyloxy)phenyl]sulfonyl}-5-chloro-2-methyl-1-[4-(trifluoromethoxy)benzyl]tryptophan] was tested, and the inhibition at 1 µM was 47.4%.
Molecule `CC#CCOc1ccc(S(=O)(=O)N[C@@H](Cc2c(C)n(Cc3ccc(F)cc3)c3ccc(Cl)cc23)C(=O)O)cc1` [Example 95, N-{[4-(but-2-ynyloxy)phenyl]sulfonyl}-5-chloro-1-(4-fluorobenzyl)-2-methyltryptophan] has an inhibition at 1 µM of 63.6%.
Work on `CC#CCOc1ccc(S(=O)(=O)N[C@@H](Cc2c(C)n(Cc3ccc(Cl)cc3)c3ccc(Cl)cc23)C(=O)O)cc1` [Example 96, N-{[4-(but-2-ynyloxy)phenyl]sulfonyl}-5-chloro-1-(4-chlorobenzyl)-2-methyltryptophan] yielded an inhibition at 1 µM of 56.5%.
`CC#CCOc1ccc(S(=O)(=O)N[C@@H](Cc2c(C)n(Cc3ccc(C(C)C)cc3)c3ccc(Cl)cc23)C(=O)O)cc1` [Example 97, N-{[4-(but-2-ynyloxy)phenyl]sulfonyl}-5-chloro-1-(4-isopropylbenzyl)-2-methyltryptophan] was tested, and the inhibition at 1 µM was 21.9%.
For `CC#CCOc1ccc(S(=O)(=O)N[C@@H](Cc2c(C)n(Cc3ccc(C#N)cc3)c3ccc(Cl)cc23)C(=O)O)cc1` [Example 98, N-{[4-(but-2-ynyloxy)phenyl]sulfonyl}-5-chloro-1-(4-cyanobenzyl)-2-methyltryptophan], the inhibition at 1 µM was 61%.
`CC#CCOc1ccc(S(=O)(=O)N[C@@H](Cc2c(C)n(Cc3ccc4c(c3)OCO4)c3ccc(Cl)cc23)C(=O)O)cc1` [Example 100, 1-(1,3-benzodioxol-5-ylmethyl)-N-{[4-(but-2-ynyloxy)phenyl]sulfonyl}-5-chloro-2-methyltryptophan] gave an inhibition at 1 µM of 55.6%.
Molecule `CC#CCOc1ccc(S(=O)(=O)N[C@@H](Cc2c(C)n(CC(C)C)c3ccc(Cl)cc23)C(=O)O)cc1` [Example 101, N-{[4-(but-2-ynyloxy)phenyl]sulfonyl}-5-chloro-1-isobutyl-2-methyltryptophan] has an inhibition at 1 µM of 68.5%.
In the case of `CC#CCOc1ccc(S(=O)(=O)N[C@@H](Cc2c(C)n(CC3CCCCC3)c3ccc(Cl)cc23)C(=O)O)cc1` [Example 102, N-{[4-(but-2-ynyloxy)phenyl]sulfonyl}-5-chloro-1-(cyclohexylmethyl)-2-methyltryptophan], the inhibition at 1 µM is reported as 56.9%.
Work on `CC#CCOc1ccc(S(=O)(=O)N[C@@H](Cc2cn(Cc3ccccc3)c3ccc(C(=O)O)cc23)C(=O)O)cc1` [Example 103, 1-benzyl-N-{[4-(but-2-ynyloxy)phenyl]sulfonyl}-5-carboxytryptophan] yielded an inhibition at 1 µM of 6.16%.
